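The compound was tested at five concentrations on cells cultured in 96-well plates, with a 48-hour exposure period. GI50 is the concentration that inhibits growth by half. TGI: concentration producing complete growth inhibition.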
Tests used:
Assay in all cases: growth of human tumour cells (NCI), 48 h
[1] = tested on: NCI-H23 lung
[2] = tested on: SN12C renal
[3] = tested on: ACHN renal
[4] = tested on: NCI-H460 lung
[5] = tested on: SNB-19 CNS
[6] = tested on: NCI-H522 lung
[7] = tested on: UACC-257 melanoma
[8] = tested on: T-47D breast
[9] = tested on: UACC-62 melanoma
[10] = tested on: KM12 colon
[11] = tested on: OVCAR-8 ovarian
[12] = tested on: HL-60(TB) leukemia
[13] = tested on: SF-268 CNS
[14] = tested on: PC-3 prostate
[15] = tested on: SNB-75 CNS
[16] = tested on: CAKI-1 renal
[17] = tested on: NCI-H226 lung
[18] = tested on: DU-145 prostate
[19] = tested on: OVCAR-3 ovarian
[20] = tested on: EKVX NSCLC
[21] = tested on: RPMI-8226 leukemia
[22] = tested on: COLO 205 colon
[23] = tested on: MCF7 breast
[24] = tested on: MOLT-4 leukemia
[25] = tested on: HCT-116 colon
[26] = tested on: SK-MEL-5 melanoma
[27] = tested on: OVCAR-5 ovarian
[28] = tested on: 786-0 renal
[29] = tested on: HCT-15 colon
[30] = tested on: SK-OV-3 ovarian
[31] = tested on: HT29 colon
[32] = tested on: A549 NSCLC
[33] = tested on: SR leukemia
[34] = tested on: MDA-MB-435
[35] = tested on: BT-549 breast
[36] = tested on: A498 renal
[37] = tested on: LOX IMVI melanoma
[38] = tested on: MALME-3M melanoma
[39] = tested on: U251 CNS
[40] = tested on: SK-MEL-2 melanoma
[41] = tested on: CCRF-CEM leukemia
[42] = tested on: SF-295 CNS
[43] = tested on: HS 578T breast
[44] = tested on: NCI/ADR-RES ovarian
[45] = tested on: RXF 393 renal
[46] = tested on: SK-MEL-28 melanoma
[47] = tested on: K-562 leukemia
[48] = tested on: HOP-62 NSCLC
[49] = tested on: SF-539 CNS
[50] = tested on: HOP-92 NSCLC
[51] = tested on: MDA-MB-231 breast
[52] = tested on: OVCAR-4 ovarian
[53] = tested on: UO-31 renal
[54] = tested on: M14 melanoma
[55] = tested on: IGROV1 ovarian
[56] = tested on: SW-620 colon
[57] = tested on: TK-10 renal
[58] = tested on: HCC-2998 colon

COc1ccc(C2C(C#N)=C(/N=C/c3ccc(Cl)cc3)Oc3c2sc2c(C)cccc32)cc1 (stereo not given) gave a GI50 [1] of 2.34 µM, a TGI [1] of 12.6 µM and a GI50 [2] of 2.79 µM. For the same compound, the TGI [2] was 12.7 µM, the GI50 [3] was 3.94 µM and the TGI [3] was 17.8 µM. It also gave a GI50 [4] of 1.71 µM, a TGI [4] of 12.8 µM and a GI50 [5] of 3.57 µM. It also gave a TGI [5] of 16.7 µM, a GI50 [6] of 0.247 µM and a TGI [6] of 0.858 µM. For the same compound, the GI50 [7] was 12.3 µM, the TGI [7] was 31.5 µM and the GI50 [8] was 1.77 µM. It also gave a TGI [8] of 23.1 µM, a GI50 [9] of 0.515 µM and a TGI [9] of 10.2 µM. For the same compound, the GI50 [10] was 1.4 µM, the TGI [10] was 12.6 µM and the GI50 [11] was 2.87 µM. For the same compound, the TGI [11] was 11.4 µM, the GI50 [12] was 0.433 µM and the TGI [12] was 2.94 µM. It also gave a GI50 [13] of 4.28 µM, a TGI [13] of 21.2 µM and a GI50 [14] of 2.01 µM. It also gave a TGI [14] of 18.1 µM, a GI50 [15] of 3.08 µM and a TGI [15] of 23.2 µM. It also gave a GI50 [16] of 4.03 µM, a TGI [16] of 22.3 µM and a GI50 [17] of 6.02 µM. For the same compound, the TGI [17] was 24.3 µM, the GI50 [18] was 3.2 µM and the TGI [18] was 14 µM. The GI50 [19] was 0.753 µM, the TGI [19] was 3.69 µM and the GI50 [20] was 3.87 µM. For the same compound, the TGI [20] was 17.3 µM, the GI50 [21] was 3.21 µM and the TGI [21] was 18.5 µM. For the same compound, the GI50 [22] was 2.59 µM, the TGI [22] was 6.96 µM and the GI50 [23] was 0.549 µM. It also gave a TGI [23] of 21.4 µM, a GI50 [24] of 3.37 µM and a TGI [24] of 28.7 µM. For the same compound, the GI50 [25] was 1.55 µM, the TGI [25] was 13.4 µM and the GI50 [26] was 1.44 µM. It also gave a TGI [26] of 13.1 µM, a GI50 [27] of 2.81 µM and a TGI [27] of 12.4 µM. The GI50 [28] was 4.34 µM, the TGI [28] was 28.2 µM and the GI50 [29] was 0.731 µM. For the same compound, the TGI [29] was 10.5 µM, the GI50 [30] was 3.12 µM and the TGI [30] was 17.5 µM. The GI50 [31] was 2.76 µM, the TGI [31] was 8.76 µM and the GI50 [32] was 2.22 µM. The TGI [32] was 28.9 µM, the GI50 [33] was 0.413 µM and the TGI [33] was 20.6 µM. For the same compound, the GI50 [34] was 0.312 µM, the TGI [34] was 0.993 µM and the GI50 [35] was 1.21 µM. The TGI [35] was 18.8 µM, the GI50 [36] was 12.6 µM and the TGI [36] was 27.5 µM. The GI50 [37] was 1.89 µM, the TGI [37] was 13.4 µM and the GI50 [38] was 2.28 µM. It also gave a TGI [38] of 19.8 µM, a GI50 [39] of 2.96 µM and a TGI [39] of 14 µM. For the same compound, the GI50 [40] was 2.17 µM, the TGI [40] was 13 µM and the GI50 [41] was 3.01 µM. For the same compound, the TGI [41] was > 100 µM, the GI50 [42] was 1.19 µM and the TGI [42] was 10.3 µM. It also gave a GI50 [43] of 2.44 µM, a TGI [43] of 19.1 µM and a GI50 [44] of 0.668 µM. For the same compound, the TGI [44] was 4.49 µM, the GI50 [45] was 2.12 µM and the TGI [45] was 10.5 µM. It also gave a GI50 [46] of 1.51 µM, a TGI [46] of 18.8 µM and a GI50 [47] of 0.404 µM. For the same compound, the TGI [47] was > 100 µM, the GI50 [48] was 4.07 µM and the TGI [48] was 19.7 µM. It also gave a GI50 [49] of 1.31 µM, a TGI [49] of 3.54 µM and a GI50 [50] of 1.69 µM. It also gave a TGI [50] of 18.1 µM, a GI50 [51] of 2.73 µM and a TGI [51] of 13.8 µM. For the same compound, the GI50 [52] was 3.4 µM, the TGI [52] was 25.9 µM and the GI50 [53] was 1.97 µM. For the same compound, the TGI [53] was 16 µM, the GI50 [54] was 1.59 µM and the TGI [54] was 10.8 µM. It also gave a GI50 [55] of 2.27 µM, a TGI [55] of 17.4 µM and a GI50 [56] of 1.11 µM. For the same compound, the TGI [56] was 16.3 µM, the GI50 [57] was 12.5 µM and the TGI [57] was 37.1 µM. It also gave a GI50 [58] of 1.91 µM and a TGI [58] of 5.99 µM.
Cc1ccc(NC(=O)Nc2nc3ccc([N+](=O)[O-])cc3s2)cc1 was tested, and the GI50 [1] was 1.89 µM, the TGI [1] was 6.78 µM and the GI50 [2] was 2.54 µM. The TGI [2] was 12.5 µM, the GI50 [3] was 2.78 µM and the TGI [3] was 11.4 µM. It also gave a GI50 [4] of 2.84 µM, a TGI [4] of 10.4 µM and a GI50 [5] of 2.7 µM. The TGI [5] was 13.4 µM, the GI50 [6] was 1.14 µM and the TGI [6] was 5.21 µM. The GI50 [7] was 1.82 µM, the TGI [7] was 6.78 µM and the GI50 [8] was 0.799 µM. The TGI [8] was 6.4 µM, the GI50 [9] was 2.77 µM and the TGI [9] was 13.7 µM. The GI50 [10] was 2.45 µM, the TGI [10] was 8.15 µM and the GI50 [11] was 3.2 µM. The TGI [11] was 14 µM, the GI50 [13] was 3.52 µM and the TGI [13] was 16 µM. For the same compound, the GI50 [14] was 2.14 µM, the TGI [14] was 8.83 µM and the GI50 [15] was 1.95 µM. It also gave a TGI [15] of 6.27 µM, a GI50 [16] of 1.79 µM and a TGI [16] of 6.23 µM. It also gave a GI50 [17] of 2.75 µM, a TGI [17] of 12.3 µM and a GI50 [18] of 3.26 µM. For the same compound, the TGI [18] was 11.7 µM, the GI50 [19] was 2.43 µM and the TGI [19] was 9.63 µM. For the same compound, the GI50 [20] was 2.75 µM, the TGI [20] was 10.9 µM and the GI50 [21] was 1.26 µM. The TGI [21] was 3.77 µM, the GI50 [22] was 1.91 µM and the TGI [22] was 3.84 µM. It also gave a GI50 [23] of 1.99 µM, a TGI [23] of 7.77 µM and a GI50 [24] of 2.09 µM. The TGI [24] was 6.33 µM, the GI50 [25] was 1.79 µM and the TGI [25] was 5.22 µM. It also gave a GI50 [26] of 1.42 µM, a TGI [26] of 3.51 µM and a GI50 [27] of 4.32 µM. It also gave a TGI [27] of 18.3 µM, a GI50 [28] of 2.89 µM and a TGI [28] of 12.4 µM. For the same compound, the GI50 [29] was 2.37 µM, the TGI [29] was 9.19 µM and the GI50 [30] was 2.91 µM. It also gave a TGI [30] of 10.1 µM, a GI50 [31] of 3.28 µM and a TGI [31] of 11.6 µM. The GI50 [32] was 2.79 µM, the TGI [32] was 10.5 µM and the GI50 [33] was 1.29 µM. The TGI [33] was 5.06 µM, the GI50 [34] was 2.32 µM and the TGI [34] was 9.33 µM. The GI50 [35] was 2.02 µM, the TGI [35] was 5.88 µM and the GI50 [36] was 1.41 µM. It also gave a TGI [36] of 4.38 µM, a GI50 [37] of 2.36 µM and a TGI [37] of 5.96 µM. It also gave a GI50 [38] of 2.66 µM, a TGI [38] of 7.71 µM and a GI50 [39] of 2.34 µM. It also gave a TGI [39] of 10.9 µM, a GI50 [40] of 2.19 µM and a TGI [40] of 6.03 µM. It also gave a GI50 [41] of 2.13 µM, a TGI [41] of 7.71 µM and a GI50 [42] of 1.92 µM. The TGI [42] was 5.21 µM, the GI50 [43] was 3.02 µM and the TGI [43] was 13.9 µM. For the same compound, the GI50 [44] was 2.5 µM, the TGI [44] was 7.79 µM and the GI50 [45] was 2.01 µM. The TGI [45] was 5.75 µM, the GI50 [46] was 3.1 µM and the TGI [46] was 15.1 µM. For the same compound, the GI50 [47] was 1.44 µM, the TGI [47] was 9.56 µM and the GI50 [48] was 3.1 µM. It also gave a TGI [48] of 10.7 µM, a GI50 [49] of 3.15 µM and a TGI [49] of 10.4 µM. It also gave a GI50 [50] of 1.37 µM, a TGI [50] of 5.44 µM and a GI50 [51] of 3.04 µM. For the same compound, the TGI [51] was 10.3 µM, the GI50 [52] was 1.41 µM and the TGI [52] was 9.32 µM. For the same compound, the GI50 [53] was 2.51 µM, the TGI [53] was 10.5 µM and the GI50 [54] was 2.92 µM. For the same compound, the TGI [54] was 10.6 µM, the GI50 [55] was 3.59 µM and the TGI [55] was 14.3 µM. The GI50 [56] was 2.93 µM, the TGI [56] was 10.7 µM and the GI50 [57] was 2.94 µM. For the same compound, the TGI [57] was 11.6 µM, the GI50 [58] was 2.6 µM and the TGI [58] was 10.1 µM.

Source: PubChem BioAssay (NCI)
